Results from ChEMBL document CHEMBL1155368, “Derivatives of aryl amines containing the cytotoxic 1,4-dioxo-2-butenyl pharmacophore” (Bioorg Med Chem Lett, 2010).

Legend:
CCRF-CEM = experiment: Cytotoxicity against human CEM cells; type: functional, cell-based
[1] = Cytotoxicity against human Molt4/C8 cells; type: functional, cell-based; conditions: MOLT-4
Mus musculus [2] = experiment: Toxicity in mouse assessed as mortality at 100 mg/kg, ip after 4 hrs; type: organism-based; parameters: dose 100 mg/kg, route intraperitoneal; conditions: in vivo
L1210 = experiment: Cytotoxicity against mouse L1210 cells; type: functional, cell-based
Mus musculus [3] = experiment: Toxicity in mouse assessed as mortality at 300 mg/kg, ip after 4 hrs; type: organism-based; parameters: dose 300 mg/kg, route intraperitoneal; conditions: in vivo
Mus musculus [4] = experiment: Toxicity in mouse assessed as mortality at 30 to 300 mg/kg, ip after 0.5 to 4 hrs; type: organism-based; parameters: dose 30-300 mg/kg, route intraperitoneal; conditions: in vivo
Mus musculus [5] = experiment: Toxicity in mouse assessed as mortality at 30 mg/kg, ip after 4 hrs; type: organism-based; parameters: dose 30 mg/kg, route intraperitoneal; conditions: in vivo
[6] = target: T1, Glycylpeptide N-tetradecanoyltransferase 1 (Homo sapiens, UniProt P30419); experiment: Inhibition of human NMT expressed in Escherichia coli DH5alpha cells
T1 sequence (P30419 whole entry): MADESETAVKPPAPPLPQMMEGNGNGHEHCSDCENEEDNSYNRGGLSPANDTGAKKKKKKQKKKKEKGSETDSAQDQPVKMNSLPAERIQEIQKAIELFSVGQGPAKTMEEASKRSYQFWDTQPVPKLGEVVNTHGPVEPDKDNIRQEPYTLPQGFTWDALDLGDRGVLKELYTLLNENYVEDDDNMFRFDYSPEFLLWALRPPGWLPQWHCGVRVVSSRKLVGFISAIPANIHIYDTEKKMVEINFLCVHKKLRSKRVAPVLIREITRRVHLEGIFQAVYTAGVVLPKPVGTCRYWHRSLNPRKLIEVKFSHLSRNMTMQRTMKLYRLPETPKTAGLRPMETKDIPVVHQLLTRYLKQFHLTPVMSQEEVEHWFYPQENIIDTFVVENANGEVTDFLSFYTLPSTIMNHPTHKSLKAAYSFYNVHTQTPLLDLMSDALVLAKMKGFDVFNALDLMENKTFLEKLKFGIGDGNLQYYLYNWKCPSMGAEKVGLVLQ

| Structure (SMILES) | IC50 (CCRF-CEM) [µM] | IC50 [1] [µM] | Activity (Mus musculus [2]) | IC50 (L1210) [µM] | Activity (Mus musculus [3]) | Activity (Mus musculus [4]) | Activity (Mus musculus [5]) | IC50 [6] [µM] |
| --- | --- | --- | --- | --- | --- | --- | --- | --- |
| O=C1CCC(=O)N1c1ccc([N+](=O)[O-])cc1 | 202 | 210 | Toxic | 41 | Toxic |  |  |  |
| Cc1ccc(NC(=O)/C=C/C(=O)O)cc1 | > 500 | > 500 |  | > 500 |  | Non-toxic |  |  |
| COC(=O)/C=C/C(=O)Nc1ccccc1 | 40 | 42 |  | 40 |  | Non-toxic |  |  |
| COc1ccc(/N=C2\C=CC(=O)O2)cc1 | > 500 | > 500 |  | > 500 |  |  |  |  |
| O=C1C=C/C(=N\c2ccc(Cl)c(Cl)c2)O1 | 54 | 58 |  | 47 | Toxic |  |  |  |
| O=C(O)/C=C/C(=O)Nc1ccc(Cl)cc1 | > 500 | > 500 |  | > 500 |  | Non-toxic |  |  |
| O=C1C=C/C(=N\c2ccc([N+](=O)[O-])cc2)O1 | 161 | 60 |  | 69 | Toxic |  |  |  |
| COC(=O)/C=C\C(=O)Nc1ccc(Cl)c(Cl)c1 | 55 | 41 |  | 39 | Toxic |  |  |  |
| O=C1C=CC(=O)N1c1ccccc1 | 217 | 207 | Toxic | 164 | Toxic |  | Toxic |  |
| Cc1ccc(/N=C2\C=CC(=O)O2)cc1 | 357 | 301 |  | 271 |  |  |  |  |
| Cc1ccc(N2C(=O)CCC2=O)cc1 | 42 | 43 | Toxic | 7.8 | Toxic |  |  |  |
| O=C1C=C/C(=N\c2ccccc2)O1 | > 500 | > 500 |  | > 500 |  |  |  |  |
| O=C1C=C/C(=N\c2ccc(Cl)cc2)O1 | 182 | 30 |  | 59 |  |  |  |  |
| Cc1ccc(/N=C2\C=CC(=O)O2)cc1C | 195 | 161 |  | 69 |  |  |  |  |
| COC(=O)/C=C/C(=O)Nc1ccc([N+](=O)[O-])cc1 | 11 | 7.3 |  | 6.2 |  | Non-toxic |  |  |
| CC(=O)c1ccc(N2C(=O)CCC2=O)cc1 | 215 | 93 | Toxic | 31 | Toxic |  |  |  |
| COC(=O)CCC(=O)Nc1ccccc1 | > 500 | > 500 |  | > 500 |  |  |  |  |
| O=C1CCC(=O)N1c1ccc(Cl)cc1 | 231 | 218 | Toxic | 194 | Toxic |  |  |  |
| CC(=O)c1ccc(/N=C2\C=CC(=O)O2)cc1 | 205 | 214 |  | 219 |  |  |  |  |
| N[C@@H](Cc1ccc(N(CCCl)CCCl)cc1)C(=O)O [MELPHALAN] | 2.5 | 3.2 |  | 2.1 |  |  |  |  |
| O=C(O)/C=C/C(=O)Nc1ccc(Cl)c(Cl)c1 | 209 | 214 |  | 314 |  | Non-toxic |  |  |
| COC(=O)/C=C\C(=O)Nc1ccc([N+](=O)[O-])cc1 | 190 | 210 |  | 208 | Toxic |  |  |  |

| Structure (SMILES) | IC50 (CCRF-CEM) [µM] | IC50 [1] [µM] | Activity (Mus musculus [2]) | IC50 (L1210) [µM] | Activity (Mus musculus [3]) | Activity (Mus musculus [4]) | Activity (Mus musculus [5]) | IC50 [6] [µM] |
| --- | --- | --- | --- | --- | --- | --- | --- | --- |
| COc1ccc(N2C(=O)CCC2=O)cc1 | 295 | 281 | Toxic | 225 | Toxic |  |  |  |
| O=C(O)CCC(=O)Nc1ccccc1 | > 500 | > 500 |  | > 500 |  |  |  |  |
| COC(=O)/C=C/C(=O)Nc1ccc(C(C)=O)cc1 | 32 | 35 |  | 17 |  |  |  |  |
| COC(=O)/C=C/C(=O)Nc1ccc(Cl)c(Cl)c1 | 4.8 | 2.4 |  | 0.37 |  | Non-toxic |  |  |
| COC(=O)/C=C\C(=O)Nc1ccc(C)cc1 | 36 | 37 |  | 47 |  |  |  | > 10000 |
| O=C(O)/C=C/C(=O)Nc1ccccc1 | > 500 | > 500 |  | > 500 |  | Non-toxic |  |  |
| O=C(O)/C=C/C(=O)Nc1ccc([N+](=O)[O-])cc1 | > 500 | 236 |  | > 500 |  | Non-toxic |  |  |
| COC(=O)/C=C/C(=O)Nc1ccc(Cl)cc1 | 9.6 | 8.2 |  | 7.5 |  | Non-toxic |  |  |
| O=C1CCC(=O)N1c1ccccc1 | > 500 | > 500 |  | > 500 |  | Non-toxic |  |  |
| COC(=O)/C=C\C(=O)Nc1ccc(C)c(C)c1 | 228 | 188 |  | 202 |  |  |  |  |
| COc1ccc(NC(=O)/C=C/C(=O)O)cc1 | > 500 | > 500 |  | > 500 |  | Non-toxic |  |  |
| COC(=O)/C=C\C(=O)Nc1ccc(Cl)cc1 | 95 | 41 |  | 78 |  | Non-toxic |  |  |
| COC(=O)/C=C/C(=O)Nc1c(C)cccc1C | 31 | 26 |  | 34 |  | Non-toxic |  |  |
| COC(=O)/C=C\C(=O)Nc1c(C)cccc1C | 183 | 192 |  | 184 |  |  |  |  |
| COC(=O)/C=C/C(=O)Nc1ccc(OC)cc1 | 37 | 10 |  | 18 |  | Non-toxic |  |  |
| Cc1ccc(NC(=O)/C=C/C(=O)O)cc1C | > 500 | > 500 |  | 466 |  | Non-toxic |  |  |
| COC(=O)/C=C\C(=O)Nc1ccc(C(C)=O)cc1 | 44 | 50 |  | 184 | Toxic |  |  |  |
| COC(=O)/C=C/C(=O)Nc1ccc(C)cc1 | 15 | 21 | Toxic | 9.3 |  |  |  |  |
| CC(=O)c1ccc(NC(=O)/C=C/C(=O)O)cc1 | > 500 | > 500 |  | > 500 |  | Non-toxic |  |  |
| Cc1cccc(C)c1NC(=O)/C=C/C(=O)O | > 500 | > 500 |  | > 500 |  | Non-toxic |  |  |
| COC(=O)/C=C/C(=O)Nc1ccc(C)c(C)c1 | 7.6 | 4.6 |  | 2.2 |  | Non-toxic |  | 2330 |
| COC(=O)/C=C\C(=O)Nc1ccccc1 | > 500 | > 500 |  | > 500 |  |  |  |  |
